ChEMBL document CHEMBL1151757, “Synthesis, radiosynthesis, and biological evaluation of fluorine-18-labeled 2beta-carbo(fluoroalkoxy)-3beta-(3'-((Z)-2-haloethenyl)phenyl)nortropanes: candidate radioligands for in vivo imaging of the serotonin transporter with positron emission tomography” (J Med Chem, 2008)

Tested on: not listed separately
Test: Ratio of drug uptake in pons to cerebellum in anesthetized cynomolgus monkey after 1.5 mins postinjection
Format: ADME, organism-based, Macaca fascicularis
Settings: in vivo, 0.025 h
Work on `O=C(OCC[18F])C1C2CCC(CC1c1ccc(/C=C\I)cc1)N2` (stereo unspecified) yielded a Ratio of 0.6.

Tested on: not listed separately
Test: Ratio of drug uptake in frontal lobe to cerebellum in anesthetized cynomolgus monkey after 35 mins postinjection
Format: ADME, organism-based, Macaca fascicularis
Settings: in vivo
For `O=C(OCC[18F])C1C2CCC(CC1c1ccc(/C=C\I)cc1)N2` (stereo unspecified), the Ratio was 0.7.

Tested on: Thalamus
Test: Drug uptake in anesthetized cynomolgus monkey brain thalamus after 155 mins postinjection
Format: ADME, organism-based, Macaca fascicularis
Design: unit not given here
Settings: in vivo
In the case of `O=C(OCC[18F])C1C2CCC(CC1c1ccc(/C=C\I)cc1)N2` (stereo unspecified), the Drug uptake is reported as 3.97.

Tested on: not listed separately
Test: Drug uptake in anesthetized cynomolgus monkey brain cerebellum after 65 mins postinjection
Format: ADME, organism-based, Macaca fascicularis
Settings: in vivo
`O=C(OCC[18F])C1C2CCC(CC1c1ccc(/C=C\I)cc1)N2` (stereo unspecified) showed a Drug uptake of 2.44.

Tested on: Pons
Test: Drug uptake in anesthetized cynomolgus monkey brain pons after 75 mins postinjection
Format: ADME, organism-based, Macaca fascicularis
Settings: in vivo, 1.25 h
`O=C(OCC[18F])C1C2CCC(CC1c1ccc(/C=C\I)cc1)N2` (stereo unspecified) showed a Drug uptake of 3.39.

Tested on: Medulla
Test: Drug uptake in anesthetized cynomolgus monkey brain medulla after 105 mins postinjection
Format: ADME, organism-based, Macaca fascicularis
Settings: in vivo, 1.75 h
Compound `O=C(OCC[18F])C1C2CCC(CC1c1ccc(/C=C\I)cc1)N2` (stereo unspecified) has a Drug uptake of 3.82.

Tested on: not listed separately
Test: Ratio of drug uptake in putamen to cerebellum in anesthetized cynomolgus monkey after 35 mins postinjection
Format: ADME, organism-based, Macaca fascicularis
Settings: in vivo
Work on `O=C(OCC[18F])C1C2CCC(CC1c1ccc(/C=C\I)cc1)N2` (stereo unspecified) yielded a Ratio of 1.4.

Tested on: Thalamus
Test: Drug uptake in anesthetized cynomolgus monkey brain thalamus after 22.5 mins postinjection
Format: ADME, organism-based, Macaca fascicularis
Design: unit not given here
Settings: in vivo, 0.375 h
With `O=C(OCC[18F])C1C2CCC(CC1c1ccc(/C=C\I)cc1)N2` (stereo unspecified) the Drug uptake was 2.9.

Tested on: Thalamus
Test: Drug uptake in anesthetized cynomolgus monkey brain thalamus after 95 mins postinjection
Format: ADME, organism-based, Macaca fascicularis
Design: unit not given here
Settings: in vivo
Work on `O=C(OCC[18F])C1C2CCC(CC1c1ccc(/C=C\I)cc1)N2` (stereo unspecified) yielded a Drug uptake of 4.15.

Tested on: not listed separately
Test: Ratio of drug uptake in thalamus to cerebellum in anesthetized cynomolgus monkey after 9.5 mins postinjection
Format: ADME, organism-based, Macaca fascicularis
Settings: in vivo
For `O=C(OCC[18F])C1C2CCC(CC1c1ccc(/C=C\I)cc1)N2` (stereo unspecified), the Ratio was 1.

Tested on: Caudate
Test: Drug uptake in anesthetized cynomolgus monkey brain caudate after 65 mins postinjection
Format: ADME, organism-based, Macaca fascicularis, Caudate nucleus
Settings: in vivo
`O=C(OCC[18F])C1C2CCC(CC1c1ccc(/C=C\I)cc1)N2` (stereo unspecified) gave a Drug uptake of 2.87.

Tested on: Midbrain
Test: Drug uptake in anesthetized cynomolgus monkey brain midbrain after 27.5 mins postinjection
Format: ADME, organism-based, Macaca fascicularis
Design: unit not given here
Settings: in vivo
Work on `O=C(OCC[18F])C1C2CCC(CC1c1ccc(/C=C\I)cc1)N2` (stereo unspecified) yielded a Drug uptake of 3.19.

Tested on: not listed separately
Test: Ratio of drug uptake in occipital lobe to cerebellum in anesthetized cynomolgus monkey after 18.5 mins postinjection
Format: ADME, organism-based, Macaca fascicularis
Settings: in vivo
For `O=C(OCC[18F])C1C2CCC(CC1c1ccc(/C=C\I)cc1)N2` (stereo unspecified), the Ratio was 0.7.

Tested on: Midbrain
Test: Drug uptake in anesthetized cynomolgus monkey brain midbrain after 155 mins postinjection
Format: ADME, organism-based, Macaca fascicularis
Settings: in vivo
Compound `O=C(OCC[18F])C1C2CCC(CC1c1ccc(/C=C\I)cc1)N2` (stereo unspecified) has a Drug uptake of 4.65.

Tested on: Thalamus
Test: Drug uptake in anesthetized cynomolgus monkey brain thalamus after 18.5 mins postinjection
Format: ADME, organism-based, Macaca fascicularis
Design: unit not given here
Settings: in vivo
Work on `O=C(OCC[18F])C1C2CCC(CC1c1ccc(/C=C\I)cc1)N2` (stereo unspecified) yielded a Drug uptake of 2.7.

Tested on: Thalamus
Test: Drug uptake in anesthetized cynomolgus monkey brain thalamus after 135 mins postinjection
Format: ADME, organism-based, Macaca fascicularis
Design: unit not given here
Settings: in vivo, 2.25 h
Compound `O=C(OCC[18F])C1C2CCC(CC1c1ccc(/C=C\I)cc1)N2` (stereo unspecified) has a Drug uptake of 3.99.

Tested on: not listed separately
Test: Ratio of drug uptake in midbrain to cerebellum in anesthetized cynomolgus monkey after 2.5 mins postinjection
Format: ADME, organism-based, Macaca fascicularis
Settings: in vivo
Compound `O=C(OCC[18F])C1C2CCC(CC1c1ccc(/C=C\I)cc1)N2` (stereo unspecified) has a Ratio of 0.9.

Tested on: Putamen
Test: Drug uptake in anesthetized cynomolgus monkey brain putamen after 55 mins postinjection
Format: ADME, organism-based, Macaca fascicularis
Design: unit not given here
Settings: in vivo
In the case of `O=C(OCC[18F])C1C2CCC(CC1c1ccc(/C=C\I)cc1)N2` (stereo unspecified), the Drug uptake is reported as 4.02.

Tested on: not listed separately
Test: Ratio of drug uptake in pons to cerebellum in anesthetized cynomolgus monkey after 195 mins postinjection
Format: ADME, organism-based, Macaca fascicularis
Settings: in vivo, 3.25 h
`O=C(OCC[18F])C1C2CCC(CC1c1ccc(/C=C\I)cc1)N2` (stereo unspecified) gave a Ratio of 2.6.

Tested on: not listed separately
Test: Ratio of drug uptake in caudate to cerebellum in anesthetized cynomolgus monkey after 95 mins postinjection
Format: ADME, organism-based, Macaca fascicularis
Settings: in vivo
`O=C(OCC[18F])C1C2CCC(CC1c1ccc(/C=C\I)cc1)N2` (stereo unspecified) showed a Ratio of 1.4.

Tested on: not listed separately
Test: Ratio of drug uptake in medulla to cerebellum in anesthetized cynomolgus monkey after 165 mins postinjection
Format: ADME, organism-based, Macaca fascicularis
Settings: in vivo, 2.75 h
For `O=C(OCC[18F])C1C2CCC(CC1c1ccc(/C=C\I)cc1)N2` (stereo unspecified), the Ratio was 2.6.

Tested on: not listed separately
Test: Drug uptake in anesthetized cynomolgus monkey brain occipital lobe after 125 mins postinjection
Format: ADME, organism-based, Macaca fascicularis
Settings: in vivo
`O=C(OCC[18F])C1C2CCC(CC1c1ccc(/C=C\I)cc1)N2` (stereo unspecified) showed a Drug uptake of 2.24.

Tested on: Midbrain
Test: Drug uptake in anesthetized cynomolgus monkey brain midbrain after 65 mins postinjection
Format: ADME, organism-based, Macaca fascicularis
Design: unit not given here
Settings: in vivo
Work on `O=C(OCC[18F])C1C2CCC(CC1c1ccc(/C=C\I)cc1)N2` (stereo unspecified) yielded a Drug uptake of 4.13.

Tested on: Thalamus
Test: Drug uptake in anesthetized cynomolgus monkey brain thalamus after 205 mins postinjection
Format: ADME, organism-based, Macaca fascicularis
Settings: in vivo
For `O=C(OCC[18F])C1C2CCC(CC1c1ccc(/C=C\I)cc1)N2` (stereo unspecified), the Drug uptake was 3.59.

Tested on: Putamen
Test: Drug uptake in anesthetized cynomolgus monkey brain putamen after 105 mins postinjection
Format: ADME, organism-based, Macaca fascicularis
Design: unit not given here
Settings: in vivo, 1.75 h
`O=C(OCC[18F])C1C2CCC(CC1c1ccc(/C=C\I)cc1)N2` (stereo unspecified) showed a Drug uptake of 4.34.

Tested on: Pons
Test: Drug uptake in anesthetized cynomolgus monkey brain pons after 155 mins postinjection
Format: ADME, organism-based, Macaca fascicularis
Settings: in vivo
`O=C(OCC[18F])C1C2CCC(CC1c1ccc(/C=C\I)cc1)N2` (stereo unspecified) gave a Drug uptake of 3.43.

Tested on: Medulla
Test: Drug uptake in anesthetized cynomolgus monkey brain medulla after 115 mins postinjection
Format: ADME, organism-based, Macaca fascicularis
Settings: in vivo
`O=C(OCC[18F])C1C2CCC(CC1c1ccc(/C=C\I)cc1)N2` (stereo unspecified) showed a Drug uptake of 3.8.

Tested on: not listed separately
Test: Drug uptake in anesthetized cynomolgus monkey brain cerebellum after 175 mins postinjection
Format: ADME, organism-based, Macaca fascicularis
Settings: in vivo
In the case of `O=C(OCC[18F])C1C2CCC(CC1c1ccc(/C=C\I)cc1)N2` (stereo unspecified), the Drug uptake is reported as 1.3.

Tested on: Medulla
Test: Drug uptake in anesthetized cynomolgus monkey brain medulla after 165 mins postinjection
Format: ADME, organism-based, Macaca fascicularis
Settings: in vivo, 2.75 h
Compound `O=C(OCC[18F])C1C2CCC(CC1c1ccc(/C=C\I)cc1)N2` (stereo unspecified) has a Drug uptake of 3.58.

Tested on: Midbrain
Test: Drug uptake in anesthetized cynomolgus monkey brain midbrain after 135 mins postinjection
Format: ADME, organism-based, Macaca fascicularis
Settings: in vivo, 2.25 h
With `O=C(OCC[18F])C1C2CCC(CC1c1ccc(/C=C\I)cc1)N2` (stereo unspecified) the Drug uptake was 4.7.

Tested on: not listed separately
Test: Ratio of drug uptake in occipital lobe to cerebellum in anesthetized cynomolgus monkey after 235 mins postinjection
Format: ADME, organism-based, Macaca fascicularis
Settings: in vivo
With `O=C(OCC[18F])C1C2CCC(CC1c1ccc(/C=C\I)cc1)N2` (stereo unspecified) the Ratio was 1.6.

Tested on: not listed separately
Test: Drug uptake in anesthetized cynomolgus monkey brain occipital lobe after 195 mins postinjection
Format: ADME, organism-based, Macaca fascicularis
Settings: in vivo, 3.25 h
Compound `O=C(OCC[18F])C1C2CCC(CC1c1ccc(/C=C\I)cc1)N2` (stereo unspecified) has a Drug uptake of 1.82.

Tested on: Thalamus
Test: Drug uptake in anesthetized cynomolgus monkey brain thalamus after 65 mins postinjection
Format: ADME, organism-based, Macaca fascicularis
Design: unit not given here
Settings: in vivo
For `O=C(OCC[18F])C1C2CCC(CC1c1ccc(/C=C\I)cc1)N2` (stereo unspecified), the Drug uptake was 3.92.

Tested on: Caudate
Test: Drug uptake in anesthetized cynomolgus monkey brain caudate after 27.5 mins postinjection
Format: ADME, organism-based, Macaca fascicularis, Caudate nucleus
Settings: in vivo
`O=C(OCC[18F])C1C2CCC(CC1c1ccc(/C=C\I)cc1)N2` (stereo unspecified) gave a Drug uptake of 2.17.

Tested on: Midbrain
Test: Drug uptake in anesthetized cynomolgus monkey brain midbrain after 4.5 mins postinjection
Format: ADME, organism-based, Macaca fascicularis
Design: unit not given here
Settings: in vivo, 0.075 h
`O=C(OCC[18F])C1C2CCC(CC1c1ccc(/C=C\I)cc1)N2` (stereo unspecified) showed a Drug uptake of 1.23.

Tested on: Pons
Test: Drug uptake in anesthetized cynomolgus monkey brain pons after 185 mins postinjection
Format: ADME, organism-based, Macaca fascicularis
Settings: in vivo
In the case of `O=C(OCC[18F])C1C2CCC(CC1c1ccc(/C=C\I)cc1)N2` (stereo unspecified), the Drug uptake is reported as 3.44.

Tested on: Midbrain
Test: Drug uptake in anesthetized cynomolgus monkey brain midbrain after 195 mins postinjection
Format: ADME, organism-based, Macaca fascicularis
Settings: in vivo, 3.25 h
For `O=C(OCC[18F])C1C2CCC(CC1c1ccc(/C=C\I)cc1)N2` (stereo unspecified), the Drug uptake was 4.56.

Tested on: Pons
Test: Drug uptake in anesthetized cynomolgus monkey brain pons after 12.5 mins postinjection
Format: ADME, organism-based, Macaca fascicularis
Settings: in vivo
With `O=C(OCC[18F])C1C2CCC(CC1c1ccc(/C=C\I)cc1)N2` (stereo unspecified) the Drug uptake was 1.88.

Tested on: Thalamus
Test: Drug uptake in anesthetized cynomolgus monkey brain thalamus after 195 mins postinjection
Format: ADME, organism-based, Macaca fascicularis
Settings: in vivo, 3.25 h
Compound `O=C(OCC[18F])C1C2CCC(CC1c1ccc(/C=C\I)cc1)N2` (stereo unspecified) has a Drug uptake of 3.67.

Tested on: Pons
Test: Drug uptake in anesthetized cynomolgus monkey brain pons after 125 mins postinjection
Format: ADME, organism-based, Macaca fascicularis
Settings: in vivo
In the case of `O=C(OCC[18F])C1C2CCC(CC1c1ccc(/C=C\I)cc1)N2` (stereo unspecified), the Drug uptake is reported as 3.56.

Tested on: not listed separately
Test: Ratio of drug uptake in occipital lobe to cerebellum in anesthetized cynomolgus monkey after 125 mins postinjection
Format: ADME, organism-based, Macaca fascicularis
Settings: in vivo
Compound `O=C(OCC[18F])C1C2CCC(CC1c1ccc(/C=C\I)cc1)N2` (stereo unspecified) has a Ratio of 1.3.

Tested on: Medulla
Test: Drug uptake in anesthetized cynomolgus monkey brain medulla after 85 mins postinjection
Format: ADME, organism-based, Macaca fascicularis
Settings: in vivo
Compound `O=C(OCC[18F])C1C2CCC(CC1c1ccc(/C=C\I)cc1)N2` (stereo unspecified) has a Drug uptake of 3.91.

Tested on: Caudate
Test: Drug uptake in anesthetized cynomolgus monkey brain caudate after 125 mins postinjection
Format: ADME, organism-based, Macaca fascicularis, Caudate nucleus
Settings: in vivo
`O=C(OCC[18F])C1C2CCC(CC1c1ccc(/C=C\I)cc1)N2` (stereo unspecified) showed a Drug uptake of 3.09.

Tested on: not listed separately
Test: Ratio of drug uptake in medulla to cerebellum in anesthetized cynomolgus monkey after 185 mins postinjection
Format: ADME, organism-based, Macaca fascicularis
Settings: in vivo
Compound `O=C(OCC[18F])C1C2CCC(CC1c1ccc(/C=C\I)cc1)N2` (stereo unspecified) has a Ratio of 2.5.

Tested on: not listed separately
Test: Drug uptake in anesthetized cynomolgus monkey brain cerebellum after 205 mins postinjection
Format: ADME, organism-based, Macaca fascicularis
Settings: in vivo
Compound `O=C(OCC[18F])C1C2CCC(CC1c1ccc(/C=C\I)cc1)N2` (stereo unspecified) has a Drug uptake of 1.22.

Tested on: not listed separately
Test: Drug uptake in anesthetized cynomolgus monkey brain cerebellum after 12.5 mins postinjection
Format: ADME, organism-based, Macaca fascicularis
Settings: in vivo
`O=C(OCC[18F])C1C2CCC(CC1c1ccc(/C=C\I)cc1)N2` (stereo unspecified) showed a Drug uptake of 2.13.
